# According to patent US5328913A, “Minoxidil analogs as inhibitors of cell proliferation and lysyl hydroxylase” (priority 1992, dated 1994):
# Experiments:
# [1] = system: Lysyl Hydroxylations in Human Skin Fibroblasts; assay: Hydroxylation of lysine residues in type I procollagen (Hyl/Lys); type: cell-based; settings: 0.3 M, 72 hr
# prolyl hydroxylase = assay: Prolyl hydroxylase activity in fibroblasts treated with minoxidil and its hydroxy derivatives (Example 3); type: cell-based, human; settings: 1 mM
# Protocol: (§1) Culture of human skin fibroblasts derived from an apparently normal adult were grown to confluent densities in Dulbecco's modified Eagle's medium supplemented with 10% (v/v) fetal calf serum. Thereafter, the medium was replaced with medium supplemented with 0.5% dialyzed fetal calf serum. The cultures were treated for 72 hr with 1 mM minoxidil, 3'- hydroxyminoxidil,or 4'-hydroxyminoxidil (Upjohn) dissolved in aqueous medium. In some experiments, minoxodil was dissolved in 95% (v/v) ethanol; the final concentration of minoxidil was 0.3 mM and that of ethanol was 0.3%. Cultures treated with ethanol only served as the control.
# During the last 3 hr of treatment, cultures received 100 μM ascorbic acid. The enzyme activities in extracts of treated cells were measured by tritium-release assays described previously (Murad and Pinnell, J. Biol. Chem. 262:11,973 (1987)).
# [2] = system: Prolyl Hydroxylations in Human Skin Fibroblasts; assay: Hydroxylation of proline residues in type I procollagen (Hyp/Pro); type: cell-based; settings: for Hyp/Pro: 72 hr
# Protocol: Culture of human skin fibroblasts derived from an apparently normal adult were grown to confluent densities in Dulbecco's modified Eagle's medium supplemented with 10% (v/v) fetal calf serum. Thereafter, the medium was replaced with medium supplemented with 0.5% dialyzed fetal calf serum. […] In some experiments, minoxodil was dissolved in 95% (v/v) ethanol; […]. Cultures treated with ethanol only served as the control.
# During the last 6 hr of treatment, cultures were labeled with 50 μCi of L-[2,3-^3 H]proline (35 Ci/mmol) and 50 μCi of L[U-^14 C]lysine ([…]) in 4 ml of lysine-free medium supplemented with 100 μM ascorbic acid. At the end of the incubation period, the medium was removed and mixed with 1 mM each of EDTA, N-ethylmaleimide, and phenylmethylsulfonylfluoride, and the collagenous proteins were precipitated with 30% (NH4)2 SO4. The cell layer was scraped and extracted with 0.5 M acetic acid containing the protease inhibitors as above. The cell extract was neutralized, and the collagenous proteins were precipitated as above. The (NH4)2 SO4 precipitate from the medium and cell layer was separately dissolved in 0.1% SDS/10 mM Tris-HCl (pH 6.8), reduced with dithiothreitol, and analyzed by electrophoresis on 4% SDS-polyacrylamide gels. The bands corresponding to the proαl(I) and proα2(I) chains from the two fractions were pooled and hydrolyzed with 6 M HCl for 24 hr at 110° C. Proline, hydroxyproline, lysine, and hydroxylysine in the hydrolysate were separated by HPLC (Takimitsa et al, J. Dermatol. 16:37 (1989)), and their radioactivity was determined in a Beckman liquid scintillation counter. To isolate type I procollagen the precipitate from the medium and cell layer was separately dissolved in 25 mM Tris-HCl, pH 7.5, containing 2 M urea and 1 mM each of EDTA, N-ethylmaleimide, and phenylmethylsulfonylfluoride, then chromatographed on a DEAE-cellulose column (Freiberger et al, J. Invest. Dermatol. 75:425 (1980)). The procollagen isolated from the two fractions was pooled, hydrolyzed, and analyzed as above.
# [3] = system: Collagen Synthesis in Human Skin Fibroblasts; assay: Collagen synthesis in human skin fibroblasts; type: cell-based; settings: 1 mM, 72 hr
# Protocol: as §1, with “[…].” for “the final concentration of minoxidil was 0.3 mM and that of ethanol was 0.3%.”
# During the last 6 hr of treatment, cultures were labeled with 20 μCi of L-[2,3-^3 H]proline in 1 ml of medium supplemented with 100 μM ascorbic acid. The amount of proline radioactivity incorporated into collagen in the medium and cells combined was measured after digestion with a bacterial collagenase, essentially as described previously (Freiberger et al, J. Invest. Dermatol. 75:425 (1980)).
structure (smiles),measurement,setting,value
Nc1cc(N2CCCCC2)nc(N)[n+]1[O-] [Minoxidil],Hyl/Lys,"[1]; type I procollagen chains isolated by gel electrophoresis, mean ± range (Table IV)",0.08 ± 0.02
same,Hyl/Lys,[1]; type I procollagen isolated by column chromatography (Table IV),0.17
same,prolyl hydroxylase activity (in words),prolyl hydroxylase; 72 hr,remained unchanged
same,Prolyl Hydroxylase Activity,prolyl hydroxylase; 72 hr (Table VI),29446 cpm ^3 H2 O/mg protein
same,Prolyl Hydroxylase Activity,prolyl hydroxylase; 72 hr (description table),29446 cpm^3 H2 O/mg protein
same,Hyp/Pro,"[2]; 1 mM, gel electrophoresis (Table V)",0.92 ± .01
same,Hyp/Pro,"[2]; 1 mM, type I procollagen chains isolated by gel electrophoresis, mean ± range of two experiments (description table)",0.92 ± 0.01
same,Hyp/Pro,"[2]; 0.3 M, type I procollagen chains isolated by gel electrophoresis, mean ± range (Table IV)",0.91 ± .03
same,activity at 1000 µM,"[2]; Homo sapiens, Skin fibroblast, 1 mM, 72 hr (Table V), read-out: ratio of hydroxyproline to proline, % control value",100%
same,ratio of hydroxyproline to proline (in words),[2]; Table IV text,remained unaltered
same,% Collagen Synthesized,[3]; mean ± SD of duplicate analysis of two cultures (Table VII),6.6 ± 0.7%
same,inhibition at 1000 µM,"[3]; Homo sapiens, Skin fibroblast, compared with control, read-out: reduction of synthesis of collagen relative to that of total protein",25%
